Source: ChEMBL document CHEMBL3120135, “Inhibition of glutamate racemase by substrate-product analogues” (Bioorg Med Chem Lett, 2014)
Values belong to the compound of their own block, whether it stands above or below them.

Experiments:
[1] = test system: Fusobacterium nucleatum; assay: Inhibition of Fusobacterium nucleatum recombinant N-terminal hexahistidine-tagged glutamate racemase expressed in Escherichia coli BL21 (DE3) using L-glutamate as substrate at 64 mM by circular dichroism based assay
[2] = test system: Fusobacterium nucleatum; assay: Inhibition of Fusobacterium nucleatum recombinant N-terminal hexahistidine-tagged glutamate racemase expressed in Escherichia coli BL21 (DE3) using L-glutamate as substrate at 50 mM by circular dichroism based assay
[3] = Inhibition of Fusobacterium nucleatum recombinant N-terminal hexahistidine-tagged glutamate racemase expressed in Escherichia coli BL21 (DE3) using L-glutamate as substrate by circular dichroism based assay
[4] = Partial noncompetitive inhibition of Fusobacterium nucleatum recombinant N-terminal hexahistidine-tagged glutamate racemase expressed in Escherichia coli BL21 (DE3) using L-glutamate as substrate by Michaelis-Menten plot analysis
[5] = (§1) Mixed-type inhibition of Fusobacterium nucleatum recombinant N-terminal hexahistidine-tagged glutamate racemase expressed in Escherichia coli BL21 (DE3) using L-glutamate as substrate by Michaelis-Menten plot analysis
[6] = test system: Fusobacterium nucleatum; assay: as §1
[7] = Noncompetitive inhibition of Bacillus subtilis glutamate racemase
[8] = Inhibition of Bacillus subtilis glutamate racemase
[9] = test system: Fusobacterium nucleatum; assay: Inhibition of Fusobacterium nucleatum recombinant N-terminal hexahistidine-tagged glutamate racemase expressed in Escherichia coli BL21 (DE3) using L-glutamate as substrate at 40 mM by circular dichroism based assay

SMILES: NC(CCP(=O)(O)O)C(=O)O (racemic)
inhibition [1]: 15%

SMILES: O=C(O)CCP(=O)(O)CCC(=O)O
inhibition [2]: 40% | IC50 [3]: 60.4 mM

SMILES: NC1(C(=O)O)CCP(=O)(O)CC1 (stereo not drawn)
Ki [4]: 3.1 mM | IC50 [3]: 24.1 mM

alphaKi [6]: 28 mM | IC50 [3]: 21.2 mM
SMILES: O=C1CCS(=O)(=O)CC1
Ki [5]: 18.4 mM

SMILES: O=C1CCP(=O)(O)CC1
IC50 [3]: 47.7 mM

Ki [7]: 0.092 mM | Ki [8]: 2.7 mM
SMILES: O=C(O)c1cccc(C(=O)O)n1 [DIPICOLINIC ACID]

inhibition [9]: 30% | IC50 [3]: 215 mM
SMILES: NC1(C(=O)O)CCS(=O)(=O)CC1
